Data: ChEMBL document CHEMBL4219236, “Synthesis of some novel dimethine, bis-dimethine cyanine dyes and octacosamethine cyanine dyes endowed with promising biological potency against (HepG2), (Hela), (MCF-7), (MIA), (SN12C) and (H358) cell lines” (Bioorg Med Chem Lett, 2018)
Values after ≈ are worked out from the molar mass of the structure shown.

Legend:
Assay type in all cases: functional, cell-based
[1] = system: HepG2; test: Cytotoxicity against human HepG2 cells assessed as decrease in cell viability after 96 hrs; conditions: HepG2, 96 h
[2] = system: HeLa; test: Cytotoxicity against human HeLa cells assessed as decrease in cell viability after 96 hrs
[3] = system: SN12C; test: Cytotoxicity against human SN12C cells assessed as decrease in cell viability after 96 hrs
[4] = system: MCF7; test: Cytotoxicity against human MCF7 cells assessed as decrease in cell viability after 96 hrs; conditions: MCF7, 96 h
[5] = system: NCI-H358; test: Cytotoxicity against human NCI-H358 cells assessed as decrease in cell viability after 96 hrs; conditions: NCI-H358, 96 h
[6] = system: MIA PaCa-2; test: Cytotoxicity against human MIAPaCa2 cells assessed as decrease in cell viability after 96 hrs; conditions: MIA PaCa-2, 96 h

Row | SMILES | IC50 [1] | IC50 [2] | IC50 [3] | IC50 [4] | IC50 [5] | IC50 [6]
1 | C1=Cc2cc3cc(/C=C(\c4ccccc4)c4cccc[n+]4C4CCC([n+]5ccccc5Cc5ccccc5)CC4)c(cc4nc(cc5ccc(cc1n2)[nH]5)C=C4)[nH]3.[Br-].[Br-] (configuration not stated) | 48 µg/mL | 40.3 µg/mL | 38.9 µg/mL | 45.9 µg/mL | 38.1 µg/mL | 45.9 µg/mL
2 | O=S(=O)([O-])c1ccccc1/C=C(\c1ccccc1)c1cccc[n+]1C1CCC([n+]2ccccc2/C(=C/c2ccccc2S(=O)(=O)[O-])c2ccccc2)CC1.[Br-].[Br-].[Na+].[Na+] (configuration not stated) | 25.4 µg/mL | 32.3 µg/mL | 26.3 µg/mL | 22.5 µg/mL | 26.3 µg/mL | 33.5 µg/mL
3 | C(=C(/c1ccccc1)c1cccc[n+]1C1CCC([n+]2ccccc2Cc2ccccc2)CC1)/c1cc2c3c(c1)CCCN3CCC2.[Br-].[Br-] (configuration not stated) | 62.5 µg/mL | 101 µg/mL | 86.5 µg/mL | 96.9 µg/mL | 36.5 µg/mL | 101 µg/mL
4 | O=S(=O)([O-])c1ccccc1/C=C(\c1ccccc1)c1cccc[n+]1C1CCC([n+]2ccccc2Cc2ccccc2)CC1.[Br-].[Br-].[Na+] (configuration not stated) | 32.2 µg/mL | 39.6 µg/mL | 25 µg/mL | 29 µg/mL | 30 µg/mL | 50 µg/mL
5 | O=CC1=Cc2cc3cc(/C=C(\c4ccccc4)c4cccc[n+]4C4CCC([n+]5ccccc5/C(=C/c5cc6cc7nc(cc8ccc(cc9nc(cc5[nH]6)C=C9)[nH]8)C(C=O)=C7)c5ccccc5)CC4)c(cc4nc(cc5ccc(cc1n2)[nH]5)C=C4)[nH]3.[Br-].[Br-] (configuration not stated) | 21 µg/mL | 21 µg/mL | 20 µg/mL | 16 µg/mL | 15.2 µg/mL | 20 µg/mL
6 | C(=C(/c1ccccc1)c1cccc[n+]1C1CCC([n+]2ccccc2/C(=C/c2cc3c4c(c2)CCCN4CCC3)c2ccccc2)CC1)/c1cc2c3c(c1)CCCN3CCC2.[Br-].[Br-] (configuration not stated) | 53.1 µg/mL | 49.8 µg/mL | 52.6 µg/mL | 35.6 µg/mL | 75.6 µg/mL | 55.6 µg/mL
7 | C1=Cc2cc3cc(/C=C(\c4ccccc4)c4cccc[n+]4C4CCC([n+]5ccccc5/C(=C/c5cc6cc7nc(cc8ccc(cc9nc(cc5[nH]6)C=C9)[nH]8)C=C7)c5ccccc5)CC4)c(cc4nc(cc5ccc(cc1n2)[nH]5)C=C4)[nH]3.[Br-].[Br-] (configuration not stated) | 33 µg/mL | 35.3 µg/mL | 31.1 µg/mL | 45.6 µg/mL | 49.6 µg/mL | 45.6 µg/mL
8 | O=CC1=Cc2cc3cc(/C=C(\c4ccccc4)c4cccc[n+]4C4CCC([n+]5ccccc5Cc5ccccc5)CC4)c(cc4nc(cc5ccc(cc1n2)[nH]5)C=C4)[nH]3.[Br-].[Br-] (configuration not stated) | 25.2 µg/mL | 23.7 µg/mL | 20.3 µg/mL | 19.1 µg/mL | 23.3 µg/mL | 29.3 µg/mL
9 | O=c1[nH]cc(F)c(=O)[nH]1 [FLUOROURACIL] |  | 3.2 µg/mL (≈ 24.6 µM) | 6.5 µg/mL (≈ 50 µM) |  | 6.9 µg/mL (≈ 53 µM) | 3.5 µg/mL (≈ 26.9 µM)
